Reference: patent US20240350489A1, “LOU064 FOR TREATING MULTIPLE SCLEROSIS” (NOVARTIS AG, priority 2021, published 2024)
“Also recorded” adds a separate entry of the source.

How the values were obtained:
[1] = tested on: MOG-specific immunoglobulin responses; assay: MOG-specific immunoglobulin responses in serum, HumanMOG EAE; type: in vivo, mouse; conditions: oral b.i.d. treatment
From the text: In the HumanMOG-induced EAE model the (auto)antibody response is weakly pathogenic.

RatMOG-induced EAE = assay: RatMOG-induced EAE, short eight-day (pre-disease) protocol; parameters: species or system mouse; conditions: dosed in vivo 8 days; LOU064 1, 3 and 10 mg/kg
Procedure: Isolated draining lymph node cells were incubated in vitro with RatMOG for 48 hours. Antigen-specific proliferation was determined by [^3H]-thymidine incorporation. Animals dosed in vivo with BTK inhibitors (LOU064, ibrutinib or Cyclosporin A (CsA) for 8 days. Group sizes n=4-5 per treatment.
To elucidate further whether BTK inhibitor efficacy was directly linked to reduction in B-cell antigen-presenting function compounds were tested in recombinant RatMOG-induced EAE model. This EAE model shares many of the characteristics of recombinant HumanMOG-induced EAE with MOG-specific T-cells infiltrating the CNS and resulting in neurological paralysis. However, RatMOG-induced EAE is B-cell independent and the dendritic cells are the dominant antigen-presenting cells type. Therefore, BTK inhibitors would be predicted to have no significant efficacy in RatMOG-induced EAE unless drug treatment was associated with a broader, non-specific, immune suppression. In addition to LOU064, which was used at 1 mg/kg, 3 mg/kg and 10 mg/kg, the reference compound ibrutinib was tested.
Cyclosporin A (CsA) acted as a positive control for direct T-cell immunosuppression. […] Ex vivo MOG-induced recall proliferation responses were studied using isolated splenocytes collected on day 8 post-immunization. In vivo BTK inhibitor treatment had no effect on recall responses (FIG. 12).

BTK [2] = target: T1, BTK (Mus musculus, UniProt P35991); assay: Trough BTK occupancy in spleen, blood and brain, RatMOG EAE; type: in vivo; conditions: 30 mg/kg b.i.d., 16 h after the last dose
T1 construct: BTK occupancy was assessed in brain homogenates that had been prepared for compound exposure analysis; from tissue; host or cells: spleen, inguinal lymph nodes, blood and brain homogenate of C57BL/6 EAE mice

BTK [3] = target: T2, BTK (Rattus norvegicus, UniProt Q5S255); conditions: female rats, single oral dose of 3 mg/kg; cited from earlier work
T2 construct: from tissue; host or cells: blood and spleen of female rats

[4] = Phase 2b dose range finding core study in CSU subjects, safety; conditions: for overall tolerability / safety profile: whole dose range
Procedure: In a Phase 2b, randomized, double-blind, placebo-controlled trial evaluating the efficacy and safety of LOU064 over 12 weeks in patients inadequately controlled by Hi-antihistamines, with at least moderately active CSU, patients received LOU064 10 mg q.d. (once daily), 35 mg q.d., 100 mg q.d., 10 mg b.i.d. (twice daily), 25 mg b.i.d., 100 mg b.i.d., or placebo (1:1:1:1:1:1:1 ratio).
In a dose range finding study conducted in CSU subjects the following doses are being tested: 10, 35 and 100 mg q.d. as well as 10, 25 and 100 mg b.i.d. and placebo over 12 weeks.

[5] = core study, any LOU064 dose, listed as remibrutinib

T1 sequence (P35991 whole entry): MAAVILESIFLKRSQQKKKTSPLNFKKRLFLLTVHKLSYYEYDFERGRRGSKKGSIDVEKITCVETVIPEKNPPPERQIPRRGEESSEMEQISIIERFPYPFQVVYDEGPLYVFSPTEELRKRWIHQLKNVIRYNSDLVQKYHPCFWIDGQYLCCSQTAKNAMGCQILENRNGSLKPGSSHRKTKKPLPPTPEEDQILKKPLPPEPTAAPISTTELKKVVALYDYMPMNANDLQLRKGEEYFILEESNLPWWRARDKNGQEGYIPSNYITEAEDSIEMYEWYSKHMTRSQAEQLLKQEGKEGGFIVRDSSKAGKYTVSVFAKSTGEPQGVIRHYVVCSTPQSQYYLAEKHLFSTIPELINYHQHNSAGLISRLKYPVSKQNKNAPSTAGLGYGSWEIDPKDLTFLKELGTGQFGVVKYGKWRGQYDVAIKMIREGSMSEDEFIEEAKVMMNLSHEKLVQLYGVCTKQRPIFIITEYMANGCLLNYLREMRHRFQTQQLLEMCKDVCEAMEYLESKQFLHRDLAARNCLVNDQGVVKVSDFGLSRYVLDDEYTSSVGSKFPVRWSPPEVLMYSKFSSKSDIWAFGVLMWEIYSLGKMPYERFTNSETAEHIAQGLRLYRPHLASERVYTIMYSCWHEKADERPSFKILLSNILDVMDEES
T2 sequence (Q5S255 1-660): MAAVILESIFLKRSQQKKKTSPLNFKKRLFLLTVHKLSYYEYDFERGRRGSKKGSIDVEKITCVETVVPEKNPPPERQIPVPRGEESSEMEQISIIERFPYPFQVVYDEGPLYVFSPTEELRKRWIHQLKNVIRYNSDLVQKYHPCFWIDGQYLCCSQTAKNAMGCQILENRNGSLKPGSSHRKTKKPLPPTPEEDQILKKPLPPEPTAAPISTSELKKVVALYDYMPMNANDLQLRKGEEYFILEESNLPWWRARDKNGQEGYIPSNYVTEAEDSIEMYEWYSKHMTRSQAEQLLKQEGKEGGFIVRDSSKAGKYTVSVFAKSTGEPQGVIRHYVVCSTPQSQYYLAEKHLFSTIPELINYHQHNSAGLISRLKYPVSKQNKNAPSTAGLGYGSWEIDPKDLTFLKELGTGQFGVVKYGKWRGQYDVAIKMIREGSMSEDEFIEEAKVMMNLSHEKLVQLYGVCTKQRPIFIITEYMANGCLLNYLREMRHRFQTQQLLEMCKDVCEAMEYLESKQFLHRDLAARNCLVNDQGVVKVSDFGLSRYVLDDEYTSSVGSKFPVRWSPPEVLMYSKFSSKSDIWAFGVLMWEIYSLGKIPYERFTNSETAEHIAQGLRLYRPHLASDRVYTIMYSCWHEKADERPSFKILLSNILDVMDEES

C=CC(=O)N(C)CCOc1c(N)ncnc1-c1cc(F)cc(NC(=O)c2ccc(C3CC3)cc2F)c1C [LOU064, N-(3-(6-amino-5-(2-(N-methylacrylamido)ethoxy)pyrimidin-4-yl)-5-fluoro-2-methylphenyl)-4-cyclopropyl-2-fluorobenzamide]
MOG-specific IgG2c [1]: No change was detected
MOG-specific IgM and IgG responses in serum [1]: significantly reduced
RatMOG (auto)antigen recall proliferation (RatMOG-induced EAE): failed to inhibit (auto)antigen recall proliferation
BTK occupancy in brain (BTK [2]): intermediate levels; also recorded: only partial BTK occupancy in the brain
BTK occupancy in spleen and blood (BTK [2]): in a range indicative of maximal BTK occupancy; also recorded: full BTK occupancy in blood and spleen
BTK occupancy in blood and spleen (BTK [3]): full BTK occupancy
Grade 3 creatinine elevation, patients ([4]; 10 mg q.d., Week 8, after starting a ketogenic diet): One
Grade 3 neutrophil count decrease ([4]; 35 mg q.d., Week 12): one
Grade 3 alanine transaminase elevation ([4]; 100 mg q.d., Week 8): one
deaths ([4]; core study): no deaths
laboratory findings, including blood cell counts ([4]; core study): no significant laboratory findings
AE Headache (PT) [4, 5]: 9.7%
AE Infections and infestations (SOC) [4, 5]: 24.0%
AE Skin and subcutaneous tissue disorders (SOC) [4, 5]: 16.9%
Common Terminology Criteria for AEs Grade 3 events (laboratory data) ([4]; core study, in total): three
patients with ALT>5xULN ([4]; core study, normalised on treatment): 1 patient
overall tolerability / safety profile [4]: well-tolerated across the whole dose range
overall tolerability / safety profile ([4]; listed as Remibrutinib): favorable safety profile across the whole dose range
